Test results reported in patent US20230233569A1 (Revolution Medicines, Inc., priority 2020, published 2023).
Like-named read-outs stand apart in the source and are kept apart here.

Legend:
Assay type in all cases: cell-based
[1] = system: AsPC-1 (K-Ras G12D); assay: Potency assay: pERK; conditions: Homo sapiens
[2] = system: AsPC-1 (K-Ras G12D); assay: CellTiter-Glo cell viability assay; conditions: Homo sapiens, ASPC1, 120 h
How it was run: (§1)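 Luminescence from CellTiter-Glo serves as the viability read-out after cells are treated with compound for 5 days. Each well's signal is divided by the DMSO average and multiplied by 100, and curves are fitted by four-parameter logistic regression.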

[3] = system: NCI-H358 (K-Ras G12C); assay: CellTiter-Glo cell viability assay; conditions: Homo sapiens, NCI-H358, 120 h
How it was run: as §1

[4] = read-out: AsPC-1 Cell Viability assay data IC50, K-Ras G12D, 5-day treatment
[5] = read-out: H358 Cell Viability assay data IC50, K-Ras G12C, 5-day treatment
[6] = ASPC1, AsPC-1 KRAS G12D, read-out: pERK EC50
[7] = K-Ras G12D, 5-day treatment, read-out: AsPC-1 Cell Viability assay data IC50
[8] = K-Ras G12C, 5-day treatment, read-out: H358 Cell Viability assay data IC50

In the case of CCn1c(-c2cnccc2COC)c2c3cc(ccc31)-c1cc(O)cc(c1)C[C@H](NC(=O)[C@H](C(C)C)N(C)C(=O)CN(C)C(=O)[C@@H]1N[C@H]1c1ccccc1)C(=O)N1CCC[C@H](N1)C(=O)OCC(C)(C)C2 [Example 11], the EC50 ([1]; ASPC1, read-out: pERK EC50) is reported as under 5 µM, the IC50 [2, 4] is reported as 1 to 10 µM and the IC50 [3, 5] is reported as 0.1 to 1 µM.

Compound CCn1c(-c2cnccc2COC)c2c3cc(ccc31)-c1cc(O)cc(c1)C[C@H](NC(=O)[C@H](C(C)C)N(C)C(=O)CN(C)C(=O)[C@H]1N[C@@H]1c1ccccc1)C(=O)N1CCC[C@H](N1)C(=O)OCC(C)(C)C2 [Example 12] has an EC50 ([1]; ASPC1, read-out: pERK EC50) of under 5 µM, an IC50 [2, 4] of 0.1 to 1 µM and an IC50 [3, 5] of 0.1 to 1 µM.

With CCn1c(-c2cnccc2COC)c2c3cc(ccc31)-c1cc(O)cc(c1)C[C@H](NC(=O)[C@H](C(C)C)N(C)C(=O)CN(C)C(=O)[C@@H]1N[C@@H]1C1CC1)C(=O)N1CCC[C@H](N1)C(=O)OCC(C)(C)C2 [Example 103] the EC50 ([1]; ASPC1, read-out: pERK EC50) was under 5 µM, the IC50 [2, 4] was 0.1 to 1 µM and the IC50 [3, 5] was 0.1 to 1 µM.

In the case of CCC(C)N(C)C(=O)c1cncc(-c2c3c4cc(ccc4n2CC)-c2cc(O)cc(c2)C[C@H](NC(=O)[C@H](C(C)C)N(C)C(=O)CN(C)C(=O)[C@H]2CN2)C(=O)N2CCC[C@H](N2)C(=O)OCC(C)(C)C3)c1 (stereo partly drawn) [Example 144], the EC50 ([1]; ASPC1, read-out: pERK EC50) is reported as under 5 µM, the IC50 [2, 4] is reported as 0.1 to 1 µM and the IC50 [3, 5] is reported as 0.01 to 0.1 µM.

For CCn1c(-c2cccnc2[C@H](C)OC)c2c3cc(ccc31)-c1cc(O)cc(c1)C[C@H](NC(=O)[C@H](C(C)C)N(C)C(=O)[C@@]1(C)CCCN1C(=O)[C@H]1CN1)C(=O)N1CCC[C@H](N1)C(=O)OCC(C)(C)C2 [Example 239], the EC50 [1, 6] was under 5 µM, the IC50 [2, 7] was 0.1 to 1 µM and the IC50 [3, 8] was 0.01 to 0.1 µM.

Work on CCn1c(-c2cccnc2[C@H](C)OC)c2c3cc(ccc31)-c1cc(O)cc(c1)C[C@H](NC(=O)[C@H](C(C)C)N(C)C(=O)[C@]1(C)CCCN1C(=O)[C@H]1CN1)C(=O)N1CCC[C@H](N1)C(=O)OCC(C)(C)C2 [Example 243] yielded an EC50 [1, 6] of under 5 µM, an IC50 [2, 7] of 0.1 to 1 µM and an IC50 [3, 8] of 0.1 to 1 µM.

CCn1c(-c2cccnc2[C@H](C)OC)c2c3cc(ccc31)-c1cc(O)cc(c1)C[C@H](NC(=O)[C@H](C(C)C)N(C)C(=O)[C@@H]1CO[C@H](C)CN1C(=O)[C@H]1CN1)C(=O)N1CCC[C@H](N1)C(=O)OCC(C)(C)C2 [Example 248] was tested, and the EC50 [1, 6] was under 5 µM, the IC50 [2, 7] was 0.1 to 1 µM and the IC50 [3, 8] was 0.01 to 0.1 µM.

Compound CCn1c(-c2cccnc2[C@H](C)OC)c2c3cc(ccc31)-c1cc(O)cc(c1)C[C@H](NC(=O)[C@H](C(C)C)N(C)C(=O)[C@@H]1CO[C@H](C)CN1C(=O)[C@@H]1CN1)C(=O)N1CCC[C@H](N1)C(=O)OCC(C)(C)C2 [Example 249] has an EC50 [1, 6] of under 5 µM, an IC50 [2, 7] of 0.01 to 0.1 µM and an IC50 [3, 8] of 0.01 to 0.1 µM.
